The assay has as its system NK1 receptor. Description: NK1 Receptor Antagonism Assay (calcium imaging, substance P stimulation). In kind it is cell-based, human. As to conditions: for efficacy at a low concentration (in words): 0.1 ppm; for effect as the NK1 receptor antagonist (in words): summary of Table 1. An excerpt: [Performance Evaluation Test] NK1 Receptor Antagonism Assay
In this test, maltose, maltotriose, maltotetraose, maltopentaose, maltohexaose and maltoheptaose were purchased from SIGMA, isomaltose, isomaltotriose, isomaltotetraose, isomaltopentaose, isomaltohexaose and isomaltoheptaose were purchased from Seikagaku Corporation, and four types of oligosaccharides-1-kestose, fructofranosylnystose, nystose and galactotetraose—were purchased from Wako Pure Chemicals Industries Ltd. Each oligosaccharide was diluted with saline, and used.
In order to transiently express a cloned human NK1 receptor in HEK293, cDNA of the human NK1 receptor was cut out from pCDM8 (Invitrogen), and cloned in an expression vector pCDM9 derived by inserting an ampicillin resistant gene (BLUESCRIPT, nucleotides 1973 to 2964 from SK+) at a SacII site.
HEK293 cells were seeded at 1×10^5 cells in a Falcon dish (diameter: 3.5 cm) using α-MEM medium (Gibco) containing 10% bovine fetal serum, and cultured in a 5% CO2 incubator at 37° C. overnight. Then, 20 μg of the expression vector was transfected using Transfection Reagent FuGENE6 (Roche) according to attached instructions, and the transfectants were incubated at 37° C. for 3 days and assayed by a calcium imaging method.
According to Renganathan et al's method (Renganathan M et al., J. Neurophysiol., 84(2), […] (2000)), nerve cells were dispersed and isolated from spinal dorsal root ganglion in a wild type mouse, and 1×10^5 thereof were seeded in a 24-well plate coated with poly-L-lysine. The cells were cultured in 90% DMEM medium (GIBCO) supplemented with 10% bovine fetal serum, 2 mM glutamine, 100 U/mL of penicillin/streptomycin, 100 ng/mL of NGF (SIGMA) and 5 μM cytosine arabinoside (SIGMA) under 5% CO2 at 37° C. The cells were cultured for 1 to 3 weeks, and subsequently subjected to a calcium imaging analysis. A half of the nerve cells was identified to be positive for the NK1 receptor by staining the nerve cells derived from spinal dorsal root ganglion in the wild type mouse with an anti-NK1 receptor antibody (supplied from CHEMICON International).
The cells which express the NK1 receptor transiently or constitutively were subjected to measurement using a high resolution digital B/W cooling CCD camera (ORCA supplied from Hamamatsu Photonics K.K.), and their images were analyzed using an analysis software (AQUA COSMOS supplied from Hamamatsu Photonics K.K.). When the cells were labeled for calcium, Fluo4-AM (supplied from Molecular Probe) was used as a calcium sensitive dye. Fifty μg of Fluo4-AM was dissolved in 400 μL of DMSO in a vial, 4 μL of Pluronic F-127 (Molecular Probe) was added and mixed, and then 4 mL of OPTI-MEM (GIBCO) was added thereto. The calcium sensitive dye solution thus prepared was added to the cells, which were then incubated at 37° C. for 60 minutes. An agonist, an antagonist and samples to be evaluated were prepared at concentrations which were 10 times higher than assay concentrations, and analyzed by adding a one tenth volume of the cell suspension upon analysis. All reagents and an assay temperature were kept at 37° C. For the cells transfected transiently, YFP reporter DNA fluorescence (excitation: 490 nm) was used for identifying the transfected cells. Upon measurement, a fluorescence intensity obtained by initially imaging the untreated cells was made an initial value. After passing one minute, a change of calcium/fluorescence intensity in the sample to be evaluated at the desired concentration was monitored with an interval of one second before and after the addition (2 to 5 minutes). Subsequently, substance P was added, and immediately after (2 to 5 minutes), an antagonistic activity of the sample to be evaluated was determined by monitoring the change of intracellular calcium concentrations as the change of the fluorescence intensities with the interval of one second. […]

Where [1] appears, read: evaluated concentration 0.1 ppm, substance P 100 μM.
The mark [2] stands for this setting: evaluated concentration 1 ppm, substance P 100 μM.
Where [3] appears, read: evaluated concentration 10 ppm, substance P 100 μM.
Setting [4] is: evaluated concentration 100 ppm, substance P 100 μM.
Where [5] appears, read: evaluated concentration 1000 ppm, substance P 100 μM.

Regarding `OC[C@H]1O[C@H](O[C@H]2[C@H](O)[C@@H](O)[C@@H](O[C@H]3[C@H](O)[C@@H](O)[C@@H](O[C@H]4[C@H](O)[C@@H](O)C(O)O[C@@H]4CO)O[C@@H]3CO)O[C@@H]2CO)[C@H](O)[C@@H](O)[C@@H]1O` (some centres unmarked) [Maltotetraose, maltotetraose], the “efficacy at a low concentration (in words)” value is “high efficacy” and the “effect as the NK1 receptor antagonist (in words)” value (shortened to “effect”) was “high effect”. Under setting [1], the “Efficacy (NK1 receptor antagonistic activity grade)” value is “B (Effective: the antagonistic activity was 65% or more and less than 75% and the more excellent performance than in the positive control was shown.)”. The “Efficacy (NK1 receptor antagonistic activity grade)” value under setting [2] is “A (Complete response: the antagonistic activity was 75% or more and much more excellent performance than in the positive control was shown.)”. Besides, under setting [3], the “Efficacy (NK1 receptor antagonistic activity grade)” value is “A (Complete response: the antagonistic activity was 75% or more and much more excellent performance than in the positive control was shown.)”. In addition, the “Efficacy (NK1 receptor antagonistic activity grade)” value under setting [4] is “A (Complete response: the antagonistic activity was 75% or more and much more excellent performance than in the positive control was shown.)”. Under setting [5], the “Efficacy (NK1 receptor antagonistic activity grade)” value is “A (Complete response: the antagonistic activity was 75% or more and much more excellent performance than in the positive control was shown.)”.

As to `OC[C@H]1O[C@@](CO)(OC[C@@]2(OC[C@@]3(O[C@H]4O[C@H](CO)[C@@H](O)[C@H](O)[C@H]4O)O[C@H](CO)[C@@H](O)[C@@H]3O)O[C@H](CO)[C@@H](O)[C@@H]2O)[C@@H](O)[C@@H]1O` [Nystose, nystose, reference compound], the “effect” value was “no NK1 receptor antagonistic activity was observed at all”. Besides, the “Efficacy (NK1 receptor antagonistic activity grade)” value under setting [5] is “D (Ineffective: the antagonistic activity was less than 65%, or the stimulating or agonistic activity of the sample was strong.)”.

For the compound “SPANTIDE II: standard substance SPANTIDE II (peptidic analog of substance P), positive control (SPANTIDEII) [reference compound]”, the “NK1 receptor antagonistic activity” value (positive control, 100 ppm (Table 1), substance P 100 μM) is 65%.

Consider maltoheptaose, for which the “effect” value is “high effect”. In addition, under setting [1], the “Efficacy (NK1 receptor antagonistic activity grade)” value is “D (Ineffective: the antagonistic activity was less than 65%, or the stimulating or agonistic activity of the sample was strong.)”. Under setting [2], the “Efficacy (NK1 receptor antagonistic activity grade)” value is “C (Slightly effective: the antagonistic activity was less than 65%, and a stimulating or agonistic activity of the sample was weak.)”. Also, the “Efficacy (NK1 receptor antagonistic activity grade)” value under setting [3] is “C (Slightly effective: the antagonistic activity was less than 65%, and a stimulating or agonistic activity of the sample was weak.)”. Besides, the “Efficacy (NK1 receptor antagonistic activity grade)” value under setting [4] is “B (Effective: the antagonistic activity was 65% or more and less than 75% and the more excellent performance than in the positive control was shown.)”. The “Efficacy (NK1 receptor antagonistic activity grade)” value under setting [5] is “B (Effective: the antagonistic activity was 65% or more and less than 75% and the more excellent performance than in the positive control was shown.)”.

For the compound maltohexaose, the “effect” value is “high effect”. Moreover, the “Efficacy (NK1 receptor antagonistic activity grade)” value under setting [1] was “C (Slightly effective: the antagonistic activity was less than 65%, and a stimulating or agonistic activity of the sample was weak.)”. For the same compound, under setting [2], the “Efficacy (NK1 receptor antagonistic activity grade)” value is “C (Slightly effective: the antagonistic activity was less than 65%, and a stimulating or agonistic activity of the sample was weak.)”. Further, under setting [3], the “Efficacy (NK1 receptor antagonistic activity grade)” value was “B (Effective: the antagonistic activity was 65% or more and less than 75% and the more excellent performance than in the positive control was shown.)”. Further, the “Efficacy (NK1 receptor antagonistic activity grade)” value under setting [4] is “B (Effective: the antagonistic activity was 65% or more and less than 75% and the more excellent performance than in the positive control was shown.)”. Besides, the “Efficacy (NK1 receptor antagonistic activity grade)” value under setting [5] was “B (Effective: the antagonistic activity was 65% or more and less than 75% and the more excellent performance than in the positive control was shown.)”.

In the case of maltopentaose, the “efficacy at a low concentration (in words)” value is given as “high efficacy” and the “effect” value is on record as “high effect”. Further, the “Efficacy (NK1 receptor antagonistic activity grade)” value under setting [1] was “B (Effective: the antagonistic activity was 65% or more and less than 75% and the more excellent performance than in the positive control was shown.)”. Besides, the “Efficacy (NK1 receptor antagonistic activity grade)” value under setting [2] was “B (Effective: the antagonistic activity was 65% or more and less than 75% and the more excellent performance than in the positive control was shown.)”. Besides, the “Efficacy (NK1 receptor antagonistic activity grade)” value under setting [3] was “B (Effective: the antagonistic activity was 65% or more and less than 75% and the more excellent performance than in the positive control was shown.)”. Moreover, the “Efficacy (NK1 receptor antagonistic activity grade)” value under setting [4] is “A (Complete response: the antagonistic activity was 75% or more and much more excellent performance than in the positive control was shown.)”. Also, under setting [5], the “Efficacy (NK1 receptor antagonistic activity grade)” value was “A (Complete response: the antagonistic activity was 75% or more and much more excellent performance than in the positive control was shown.)”.

On to maltotriose, for which the “effect” value is reported as “high effect”. Also, under setting [1], the “Efficacy (NK1 receptor antagonistic activity grade)” value was “C (Slightly effective: the antagonistic activity was less than 65%, and a stimulating or agonistic activity of the sample was weak.)”. The “Efficacy (NK1 receptor antagonistic activity grade)” value under setting [2] is “C (Slightly effective: the antagonistic activity was less than 65%, and a stimulating or agonistic activity of the sample was weak.)”. The “Efficacy (NK1 receptor antagonistic activity grade)” value under setting [3] was “C (Slightly effective: the antagonistic activity was less than 65%, and a stimulating or agonistic activity of the sample was weak.)”. Further, the “Efficacy (NK1 receptor antagonistic activity grade)” value under setting [4] is “B (Effective: the antagonistic activity was 65% or more and less than 75% and the more excellent performance than in the positive control was shown.)”. For the same compound, under setting [5], the “Efficacy (NK1 receptor antagonistic activity grade)” value is “A (Complete response: the antagonistic activity was 75% or more and much more excellent performance than in the positive control was shown.)”.

Values taken from patent publication US8426386B2, “NK1 receptor antagonist composition” (Lion Corporation, priority 2006, dated 2013).
